Converted amounts (≈) assume the structure as drawn. Counter-ions that a name gives are not always drawn. Like-named read-outs stand apart in the source and are kept apart here. Values belong to the compound of their own block, whether it stands above or below them.
How the values were obtained:
[1] = human, in vivo
[2] = cited from earlier work
[3] = cited from earlier work; remark: listed apart in the source
P-gp = details: cited from earlier work
[4] = addition of 100 mg ritonavir to 300 mg atazanavir; cited from earlier work
gastric pH [5] = experiment: Intra-gastric pH monitoring with the Heidelberg pH capsule; format: in vivo, human
gastric pH [6] = details: cited from earlier work
[7] = administered with Coca-Cola (pH = 2.5) compared to water; cited from earlier work
[8] = fed state, rabeprazole pretreated

- AUClast lost due to rabeprazole that was restored by addition of BHCl [1]: 12%
- Differences in Tmax across treatments [1]: No significant differences
- Individual decrease in AUClast and Cmax after rabeprazole pretreatment [1]: 11-48%
- Mean exposure lost due to rabeprazole that was restored by addition of BHCl [1]: 12-13%
- Mean plasma concentration in Treatment C compared with Treatment B ([1]; 1.5 h): 3.4 times
Compound: COC(=O)N[C@H](C(=O)N[C@@H](Cc1ccccc1)[C@@H](O)CN(Cc1ccc(-c2ccccn2)cc1)NC(=O)[C@@H](NC(=O)OC)C(C)(C)C)C(C)(C)C [Atazanavir]
- Reductions in boosted atazanavir exposures ([2]; omeprazole 20 mg once daily): 39-46%
- Exposure reductions ([2]; ritonavir-boosted atazanavir with omeprazole 40 mg once daily, light meal): 72-76%
- Solubility ([3]; pH 2): 5200 µg/mL (≈ 7.38 mM)
- Solubility ([3]; pH 4): < 5 µg/mL
- Inhibitory effect of a known P-gp inhibitor on atazanavir efflux (P-gp; pH 5.5): 78%
- Inhibitory effect of a known P-gp inhibitor on atazanavir efflux (P-gp; pH 7.4): 245%
- Increase in atazanavir AUC [4]: 238%
- Increase in atazanavir Cmax [4]: 86%

Compound: C[N+](C)(C)CC(=O)O [BHCl, betaine hydrochloride]
- Lowest observed gastric pH (gastric pH [5]; 1500 mg BHCl after rabeprazole pretreatment, fed state, mean ± SD): 0.838 ±0.391
- Length of the reacidification period (time for gastric pH to rebound to pH >4) (gastric pH [5]; [8]): 76 ±20 minutes
- Time to achieve lowest gastric pH after BHCl administration (gastric pH [5]; [8]): 67 ±33 minutes
- Average onset of effect (time to achieve a pH < 3) (gastric pH [6]; pilot study, rabeprazole-pretreated healthy volunteers): ~5 minutes

- AUClast lost due to rabeprazole that was restored by addition of BHCl [1]: 13%
- Cmax lost due to rabeprazole that was restored by addition of BHCl [1]: 12%
Compound: CC(C)c1nc(CN(C)C(=O)N[C@H](C(=O)N[C@@H](Cc2ccccc2)C[C@H](O)[C@H](Cc2ccccc2)NC(=O)OCc2cncs2)C(C)C)cs1 [Ritonavir]

Compound: COc1ccc2[nH]c([S+]([O-])Cc3ncc(C)c(OC)c3C)nc2c1 (stereo not shown) [omeprazole]
- Gastric pH around the time of atazanavir administration (gastric pH [6]; pretreatment with high-dose omeprazole): ~6

Compound: CC[C@@H]([C@H](C)O)n1ncn(-c2ccc(N3CCN(c4ccc(OC[C@@H]5CO[C@@](Cn6cncn6)(c6ccc(F)cc6F)C5)cc4)CC3)cc2)c1=O [posaconazole]
- Increase in systemic exposure [7]: > 70%

Compound: COCCCOc1ccnc(C[S+]([O-])c2nc3ccccc3[nH]2)c1C (stereo not shown) [rabeprazole]
- Gastric pH around the time of atazanavir administration (gastric pH [5]; pretreatment with rabeprazole, after light meal): ~3

From publication PMC7179955 (Pharmaceutical research, 2016)
